Test results reported in PubChem BioAssay AID504765 (Sanford-Burnham Center for Chemical Genomics, 2011).
“And” between values parts separate entries of the source, which are not always exact repeats. Equal entries are not always repeated. The source made the active and inactive calls. The rule behind the calls is not given here.

target: glucose-6-phosphate dehydrogenase-6-phosphogluconolactonase (Plasmodium falciparum 3D7); test: PfG6PD inhibitor potency, dose response, biochemical, fluorescence intensity (AID 504765); conditions: Recombinant PfG6PD enzyme, fluorescence intensity (NADPH)

SMILES | IC50
O=C1C=CC(=O)N1CCNc1ncc(C(F)(F)F)cc1Cl | 20 µM
CCc1cc(-c2n[nH]c(C)c2-c2ccccc2Cl)c(O)cc1OC | 7.52 µM
COc1ccc(CN(C)S(=O)(=O)c2nnc(NC(=O)c3ccc(C)cc3)s2)cc1OC | 7.6 µM
O=S(=O)(NCc1csc(-c2ccccc2)n1)c1ccc(Cl)s1 | 6.28 µM
Cc1cc(C)nc(SSc2nc(C)cc(C)n2)n1 | 3.06 µM
Cc1cc(C)c2c(=O)n(CC(=O)Nc3ccc(Br)c(C)c3)sc2n1 | 2.62 µM
CCN1/C(=C/C=C/C=C/C=C/c2sc3ccccc3[n+]2CC)Sc2ccccc21 | 7.54 µM
COc1cc(/C=C2\SC(c3ccc(C)cc3)=NC2=O)ccc1O | 8.7 µM
O=c1c2ccccc2sn1-c1cc(S(=O)(=O)N2CCOCC2)ccc1N1CCCC1 | 1.08 µM
COc1ccc(N2CSC3=C(C#N)C(c4ccc(OC)c(OC)c4)CC(=O)N3C2)c(OC)c1 (stereo not drawn) | 5.21 µM
Nc1c(C(=O)Nc2ccc(F)cc2)sc(=S)n1-c1ccccc1F | 8.31 µM
COc1cc(NCc2ccccc2)c2ncn(C(C)C)c2c1 | inactive
CN(C)c1cccc2c1c(NC(=O)c1ccc(Cl)cc1)nn2C | 8.65 µM
CN(C)c1ccc(C=c2c3ccccc3n3c2c2ccccc2[n+]3C)cc1 | 16 µM
CCN(CC)c1nc(N)nc(NS(=O)(=O)c2ccc(Cl)cc2)n1 | 6.15 µM
Cc1cc(C)c2c(=O)n(CC(=O)Nc3cccc(F)c3)sc2n1 | 1.89 µM
[O-]/[N+](=C\c1ccccc1)c1ccc(Br)cc1 | 0.84 µM
Oc1ccc(NCc2ccccc2OCc2ccccc2)cc1 | inactive
CCOC(=O)c1ccc(-n2c(N)c(C(=O)NCC3CCCO3)sc2=S)cc1 (stereo not drawn) | inactive
Cn1c(-c2sccc2OCc2cccc(C(F)(F)F)c2)n[nH]c1=S | inactive
CC1CN(c2ccccc2)NC1=O (stereo not drawn) | 2.34 µM
CCOc1ccc(NC(=O)Cn2sc3nc(C)cc(C)c3c2=O)cc1 | 1.85 µM
COc1cc(CNc2ccc3[nH]c(=O)[nH]c3c2)ccc1OCc1ccccc1 | inactive

SMILES | IC50
Cc1ccc(-c2csc(NC(=O)c3ccccc3F)c2C(=O)O)cc1 | 8.06 µM
O=S(=O)(Nc1cc(Sc2ncn[nH]2)c(O)c2ccccc12)c1ccccc1 | 0.741 µM
Clc1ccc2nc(-c3ccc4c(c3)OCO4)cn2c1 | inactive
O=C(Nc1nnc(S(=O)(=O)N2CCOCC2)s1)c1cccc(Br)c1 | 5.58 µM
Cc1ccc(NC(=O)c2ccc(Cl)c(N3C(=O)C=CC3=O)c2)cc1 | 7.52 µM
CN(C)c1ccc2nc3ccc(=O)cc-3sc2c1 | 13.2 µM
COc1ccc(/C=C/c2nc3ccccc3n2Cc2ccc(OC)c(OC)c2)cc1 | inactive
Cc1ccccc1OCC(=O)N/N=C/c1ccc(Sc2nc3ccccc3s2)o1 | 16.8 µM
C=CCSc1nnc(NC(=O)c2ccc(Cl)nc2)s1 | 4.05 µM
O=c1c2cc(F)ccc2sn1-c1ccccc1Cl | 4.29 µM
COc1cccc2nc3cc(C)c(C)cc3nc12 | 4.69 µM
Cc1ccc(N2CC(C(=O)OCC(=O)c3ccc([N+](=O)[O-])cc3)CC2=O)cc1 (stereo not drawn) | 8.7 µM
Cc1cc(C)c(S(=O)(=O)Nc2cc(SCC(=O)O)c(O)c3ccccc23)cc1C | 1.19 µM
COc1cc(NCCCn2cnc(C(=O)Nc3ccc(C)c(C)c3)n2)cc(OC)c1OC | > 80 µM (inactive)
COc1ccc2nc3cc(Cl)ccc3c(Nc3ccc(O)c(CN4CCN(C)CC4)c3)c2c1 | inactive
COc1cc(CNc2ccc(N3CCCC3)cc2)cc(Cl)c1OC | 3.64 µM
CCCCOc1ccc(Cc2n[nH]c(=S)n2N)cc1 | inactive
[O-]/[N+](=C\c1ccco1)c1ccc(Cl)cc1 | 1.39 µM
Cc1ccc(NC2=C(NC(=O)c3ccccc3)C(=O)c3ccccc3C2=O)cc1Cl | 10.2 µM
Cc1ccc(-n2sc3ccccc3c2=O)cc1 | 8.63 µM
Cc1cc(=O)[nH]c(N/N=C/c2c(C)nn(-c3ccccc3)c2Cl)n1 | 8.43 µM
O=C1C=CC2=C3c4cc(O)c(O)cc4CC3(O)COC2=C1O (stereo not drawn) | 6.49 µM
Cc1nn(-c2ccccc2)c(Cl)c1/C=N/Nc1nc2ccccc2n1C | 13.3 µM

SMILES | IC50
COC1=C(OC)C(=O)C(Sc2ccc3ccccc3c2)=CC1=O | 0.781 µM
Cc1ccc(S(=O)(=O)N(C(=O)c2ccncc2)c2ccc(OC(=O)c3ccncc3)c3ccccc23)cc1 | 17.7 µM
Oc1ccc(C23CC4CC(CC(C4)C2)C3)cc1O | inactive
CC(=O)OCCCNc1cc(Sc2nc3ccccc3s2)c2nonc2c1[N+](=O)[O-] | 3.92 µM
S=C(NN=Cc1ccccn1)N(Cc1ccccn1)Cc1ccccn1 | 4.66 µM
CCN1CCN(c2nc(C)nc3c2sc(=S)n3C)CC1 | 15.1 µM
O=C1NC(=O)N(c2ccccc2)C(=O)/C1=C/c1ccc([N+](=O)[O-])s1 | 10 µM
CCOC(=O)c1c(C)n(-c2ccc(C)cc2)c2c(C(C(C)=O)C(=O)O)c(Br)c(O)c(O)c12 (stereo not drawn) | 2.76 µM
O=C(CNC(=O)c1ccco1)OCC(=O)c1ccc([N+](=O)[O-])cc1 | 19.1 µM
O=[N+]([O-])c1c(NCCCO)cc(Sc2nc3ccccc3s2)c2nonc12 | 12.5 µM
Cc1ccc(C(=O)Nc2nnc(S(=O)(=O)N3CCC(C)CC3)s2)cc1 | inactive
O=c1c2ccccc2sn1-c1ccc(S(=O)(=O)N2CCCCC2)cc1 | 7.2 µM
O=[N+]([O-])c1ccc(Sc2cccc3cccnc23)c2cccnc12 | 16.5 µM
O=S(=O)(Nc1c(O)ccc2ccccc12)c1ccccc1 | 4.49 µM
Cc1nc2c(o1)C(=O)c1ccccc1C2=Nc1ccccc1 | 7 µM
CCNc1cc2c(cc1O)CCC1C2CCC2(C)C(O)CCC12 (stereo not drawn) | inactive
CC(C)c1nnc(NC(=O)c2cccc(-n3cnnn3)c2)s1 | 5.55 µM
Cc1ccc(-c2c(C(=O)N/N=C/c3cccs3)nnn2-c2nonc2N)cc1 | 3.91 µM
CCOc1ccc(N(CC(=O)N/N=C/c2cc([N+](=O)[O-])ccc2Cl)S(C)(=O)=O)cc1 | 15.1 µM
CCCn1cc(S(=O)(=O)CC(=O)Nc2ccc(OC)cc2OC)c2ccccc21 | 7.87 µM
C=C1C(=O)O[C@@H]2C[C@@H](C)[C@@H]3C=CC(=O)[C@@]3(C)[C@@H](OC(=O)CC(=O)O[C@H]3[C@@H]4C(=C)C(=O)O[C@@H]4C[C@@H](C)[C@@H]4C=CC(=O)[C@]43C)[C@H]12 | 13.3 µM
COC(=O)c1ccccc1NC1=C/C(=N\S(=O)(=O)c2cccs2)c2ccccc2C1=O | 1.26 µM and 6.47 µM
Cc1ccc(S(=O)(=O)/N=C2/C=C(C3C(=O)CC(C)(C)CC3=O)C(=O)c3ccccc32)cc1 | 14.1 µM

SMILES | IC50
CN(C)C=Nc1ccc2nc3c(cc2c1)[nH]c1ccccc13 | 9.98 µM
CN(C)S(=O)(=O)c1cccc(-n2sc3ccccc3c2=O)c1 | 2.08 µM
COc1cc(C(=O)O/N=C2/C=C(C)C(=O)C=C2C)cc(OC)c1OC | 11.6 µM
COc1ccc(C(=O)c2c(C(F)(F)F)oc3c2C(=O)c2ccccc2C3=O)cc1 | inactive
Cc1ccc(/C=C/C(=O)NCCc2cccc(Cl)c2)o1 | 7.59 µM
COc1cccc(CNc2ccc3[nH]c(=O)[nH]c3c2)c1OCc1ccccc1Cl | inactive
CC(SCC(=O)Nc1ccccc1)c1nc2ccccc2c(=O)[nH]1 (stereo not drawn) | 5.29 µM
COc1cc(N=c2ssnc2Cl)c(OC)cc1Cl | 13.5 µM
Cc1ccc2nc(SCC(=O)N/N=C/c3ccco3)cc(C)c2c1 | 10.3 µM
Cc1cccc(C(=O)Nc2nnc(S(=O)(=O)N3CCOCC3)s2)c1 | 7.44 µM
O=C(COC(=O)c1ccc2c(c1[N+](=O)[O-])C(=O)c1ccccc1C2=O)NC1CC1 | 16.4 µM
Cn1sc2ccccc2c1=O | 5.82 µM
C=CCOc1ccc(CNc2ccc3[nH]c(=O)[nH]c3c2)cc1OC | 6.61 µM
COc1cc(N)c2ncccc2c1Cl | 6.92 µM
O=C(Cn1sc2ccccc2c1=O)Nc1ccc(Cl)cc1 | 3.26 µM
CCOC(=O)Nc1ccc(NCc2ccc(F)cc2)nc1N | 3 µM
NS(=O)(=O)c1ccc(N/N=C/c2ccc(O)c(O)c2O)c([N+](=O)[O-])c1 | 5.7 µM
CC(NC1=CC(=O)c2cccnc2C1=O)C(O)c1ccccc1 (stereo not drawn) | 4.03 µM
CCOc1ccc(CNc2ccc(N3CCCC3)cc2)cc1 | 2.64 µM
NCCNc1ccc(C(=O)N2c3ccccc3Sc3ccccc32)cc1[N+](=O)[O-] | 13.3 µM
O=C(Cn1sc2ccccc2c1=O)Nc1ccccc1 | 1.97 µM
Cc1cc(NC(=O)c2oc3ccccc3c2C)ccc1-n1cnnn1 | 4.54 µM
Cn1c2ccccc2c2ccc3c(c21)C(=O)C=CC3=O | > 80 µM (inactive)

SMILES | IC50
O=c1c2ccccc2sn1-c1cccc(Cl)c1 | 4.18 µM
Nc1ccc(S(=O)(=O)c2cc(O)c3ccccc3c2O)cc1 | 5.79 µM
CCn1c2ccccc2c2nc3cc(S(=O)(=O)N4CCOCC4)ccc3nc21 | inactive
O=c1[nH]c(NCCO)c(N=Cc2ccccc2)c(=O)[nH]1 | 1.03 µM
CN(C)c1cccc2c1c(NC(=O)c1ccc(F)cc1)nn2C | 19.2 µM
CCOc1ccccc1C=NNC(=O)CCCCC(=O)NN=Cc1ccccc1OCC | 7.77 µM
Cc1ccc(/C=C/C(=O)NCc2ccc(S(N)(=O)=O)cc2)o1 | 5.78 µM
COc1c(O)ccc2c1CN1CCc3cc4c(cc3C1C2)OCO4 (stereo not drawn) | 15.5 µM
COc1ccc(C(=O)Nc2nnc(S(=O)(=O)N3CCOCC3)s2)cc1 | 7 µM
Clc1ccc(N=c2ssnc2Cl)nc1 | inactive
CCOc1cc(CNc2ccc(N3CCCC3)cc2)cc(Cl)c1OC | 3.87 µM
O=C(Nc1ccc(N2CCCC2)cc1)c1cccc(-c2cc3ccccc3oc2=O)c1 | inactive
COc1cc(SSc2cc(OC)cc([N+](=O)[O-])c2N)c(N)c([N+](=O)[O-])c1 | 4.2 µM
CNS(=O)(=O)c1ccc(-c2ccc(C=C3C(=O)NC(=O)NC3=O)o2)cc1 | 8.75 µM
O=c1[nH]nc(CNc2ccc(O)cc2)c2ccccc12 | inactive
CCC(C)c1ccccc1OCCn1ccnc1 (stereo not drawn) | 3.39 µM
CN1CC[C@@]2(C)c3cc(O)ccc3N(C)[C@@H]12 | 1.52 µM
O=C(CNC(=O)c1ccccc1)NCC(=O)OCC(=O)c1ccc([N+](=O)[O-])cc1 | inactive
COc1cccc(CNc2ccc3[nH]c(=O)[nH]c3c2)c1OCc1ccc(F)cc1 | inactive
O=c1c2ccccc2sn1-c1nccs1 | 1.69 µM
O=[N+]([O-])c1ccc(-[n+]2ccc3ccccc3c2)c([N+](=O)[O-])c1 | 8.26 µM
